Measurements published in PubChem BioAssay (NCI).
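Compound exposure: 48 hours, 5 concentrations, 96-well plates. GI50 marks 50% less growth. The concentration for full growth arrest is given as TGI.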

Columns and labels:
Assay in all cases: DTP human tumour cell line panel, 48 h
786-0 renal = test system: 786-0 renal
A498 renal = test system: A498 renal
A549 NSCLC = test system: A549 NSCLC
ACHN renal = test system: ACHN renal
COLO 205 colon = test system: COLO 205 colon
DLD-1 colon = test system: DLD-1 colon
DMS 114 small cell lung = test system: DMS 114 small cell lung
DMS 273 small cell lung = test system: DMS 273 small cell lung
EKVX NSCLC = test system: EKVX NSCLC
HCC-2998 colon = test system: HCC-2998 colon
HCT-116 colon = test system: HCT-116 colon
HCT-15 colon = test system: HCT-15 colon
HL-60(TB) leukemia = test system: HL-60(TB) leukemia
HOP-18 NSCLC = test system: HOP-18 NSCLC
HOP-62 NSCLC = test system: HOP-62 NSCLC
HOP-92 NSCLC = test system: HOP-92 NSCLC
HT29 colon = test system: HT29 colon
IGROV1 ovarian = test system: IGROV1 ovarian
K-562 leukemia = test system: K-562 leukemia
KM12 colon = test system: KM12 colon
KM20L2 colon = test system: KM20L2 colon
LOX IMVI melanoma = test system: LOX IMVI melanoma
LXFL 529 NSCLC = test system: LXFL 529 NSCLC
M14 melanoma = test system: M14 melanoma
M19-MEL melanoma = test system: M19-MEL melanoma
MALME-3M melanoma = test system: MALME-3M melanoma
MOLT-4 leukemia = test system: MOLT-4 leukemia
NCI-H226 lung = test system: NCI-H226 lung
NCI-H23 lung = test system: NCI-H23 lung
NCI-H460 lung = test system: NCI-H460 lung
NCI-H522 lung = test system: NCI-H522 lung
OVCAR-3 ovarian = test system: OVCAR-3 ovarian
OVCAR-4 ovarian = test system: OVCAR-4 ovarian
OVCAR-5 ovarian = test system: OVCAR-5 ovarian
OVCAR-8 ovarian = test system: OVCAR-8 ovarian
RXF 393 renal = test system: RXF 393 renal
SF-268 CNS = test system: SF-268 CNS
SF-295 CNS = test system: SF-295 CNS
SF-539 CNS = test system: SF-539 CNS
SK-MEL-2 melanoma = test system: SK-MEL-2 melanoma
SK-MEL-28 melanoma = test system: SK-MEL-28 melanoma
SK-MEL-5 melanoma = test system: SK-MEL-5 melanoma
SK-OV-3 ovarian = test system: SK-OV-3 ovarian
SN12C renal = test system: SN12C renal
SNB-19 CNS = test system: SNB-19 CNS
SNB-75 CNS = test system: SNB-75 CNS
SNB-78 CNS = test system: SNB-78 CNS
SW-620 colon = test system: SW-620 colon
TK-10 renal = test system: TK-10 renal
U251 CNS = test system: U251 CNS
UACC-257 melanoma = test system: UACC-257 melanoma
UACC-62 melanoma = test system: UACC-62 melanoma
UO-31 renal = test system: UO-31 renal
XF 498 CNS = test system: XF 498 CNS

CCC[CH2][Sn]([CH2]CCC)([O]C(=O)c1cccnc1SC)[O]C(=O)c1cccnc1SC
GI50 (786-0 renal): 670 nM
TGI (786-0 renal): 1980 nM
GI50 (A498 renal): 676 nM
TGI (A498 renal): 1950 nM
GI50 (A549 NSCLC): 6700 nM
TGI (A549 NSCLC): 20600 nM
GI50 (ACHN renal): 878 nM
TGI (ACHN renal): 2090 nM
GI50 (COLO 205 colon): 1090 nM
TGI (COLO 205 colon): 2330 nM
GI50 (DLD-1 colon): 347 nM
TGI (DLD-1 colon): 1610 nM
GI50 (DMS 114 small cell lung): 128 nM
TGI (DMS 114 small cell lung): 829 nM
GI50 (DMS 273 small cell lung): 1070 nM
TGI (DMS 273 small cell lung): 2260 nM
GI50 (EKVX NSCLC): 1040 nM
TGI (EKVX NSCLC): 2220 nM
GI50 (HCC-2998 colon): 1300 nM
TGI (HCC-2998 colon): 2570 nM
GI50 (HCT-116 colon): 1120 nM
TGI (HCT-116 colon): 2320 nM
GI50 (HCT-15 colon): 1040 nM
TGI (HCT-15 colon): 2300 nM
GI50 (HL-60(TB) leukemia): 160 nM
TGI (HL-60(TB) leukemia): 1050 nM
GI50 (HOP-18 NSCLC): 1480 nM
TGI (HOP-18 NSCLC): 2800 nM
GI50 (HOP-62 NSCLC): 2430 nM
TGI (HOP-62 NSCLC): 4220 nM
GI50 (HOP-92 NSCLC): 602 nM
TGI (HOP-92 NSCLC): 1930 nM
GI50 (HT29 colon): 1610 nM
TGI (HT29 colon): 3220 nM
GI50 (IGROV1 ovarian): 1380 nM
TGI (IGROV1 ovarian): 2720 nM
GI50 (K-562 leukemia): 48.2 nM
TGI (K-562 leukemia): 372 nM
GI50 (KM12 colon): 1510 nM
TGI (KM12 colon): 3080 nM
GI50 (KM20L2 colon): 1700 nM
TGI (KM20L2 colon): 3510 nM
GI50 (LOX IMVI melanoma): 302 nM
TGI (LOX IMVI melanoma): 1370 nM
GI50 (LXFL 529 NSCLC): 59 nM
TGI (LXFL 529 NSCLC): 238 nM
GI50 (M14 melanoma): 1040 nM
TGI (M14 melanoma): 2290 nM
GI50 (M19-MEL melanoma): 360 nM
TGI (M19-MEL melanoma): 1570 nM
GI50 (MALME-3M melanoma): 295 nM
TGI (MALME-3M melanoma): 1490 nM
GI50 (MOLT-4 leukemia): 149 nM
TGI (MOLT-4 leukemia): 929 nM
GI50 (NCI-H226 lung): 883 nM
TGI (NCI-H226 lung): 2180 nM
GI50 (NCI-H23 lung): 771 nM
TGI (NCI-H23 lung): 2100 nM
GI50 (NCI-H460 lung): 1660 nM
TGI (NCI-H460 lung): 3470 nM
GI50 (NCI-H522 lung): 21.6 nM
TGI (NCI-H522 lung): 133 nM
GI50 (OVCAR-3 ovarian): 1330 nM
TGI (OVCAR-3 ovarian): 2630 nM
GI50 (OVCAR-4 ovarian): 1620 nM
TGI (OVCAR-4 ovarian): 3060 nM
GI50 (OVCAR-5 ovarian): 1760 nM
TGI (OVCAR-5 ovarian): 3170 nM
GI50 (OVCAR-8 ovarian): 1300 nM
TGI (OVCAR-8 ovarian): 2780 nM
GI50 (RXF 393 renal): 210 nM
TGI (RXF 393 renal): 1120 nM
GI50 (SF-268 CNS): 650 nM
TGI (SF-268 CNS): 2010 nM
GI50 (SF-295 CNS): 1380 nM
TGI (SF-295 CNS): 2670 nM
GI50 (SF-539 CNS): 1200 nM
TGI (SF-539 CNS): 2490 nM
GI50 (SK-MEL-2 melanoma): 311 nM
TGI (SK-MEL-2 melanoma): 1390 nM
GI50 (SK-MEL-28 melanoma): 722 nM
TGI (SK-MEL-28 melanoma): 2020 nM
GI50 (SK-MEL-5 melanoma): 1270 nM
TGI (SK-MEL-5 melanoma): 2560 nM
GI50 (SK-OV-3 ovarian): 2360 nM
TGI (SK-OV-3 ovarian): 5830 nM
GI50 (SN12C renal): 620 nM
TGI (SN12C renal): 1920 nM
GI50 (SNB-19 CNS): 1460 nM
TGI (SNB-19 CNS): 2780 nM
GI50 (SNB-75 CNS): 673 nM
TGI (SNB-75 CNS): 2020 nM
GI50 (SNB-78 CNS): 89.3 nM
TGI (SNB-78 CNS): 1520 nM
GI50 (SW-620 colon): 248 nM
TGI (SW-620 colon): 1250 nM
GI50 (TK-10 renal): 527 nM
TGI (TK-10 renal): 1690 nM
GI50 (U251 CNS): 596 nM
TGI (U251 CNS): 1840 nM
GI50 (UACC-257 melanoma): 922 nM
TGI (UACC-257 melanoma): 2140 nM
GI50 (UACC-62 melanoma): 791 nM
TGI (UACC-62 melanoma): 2040 nM
GI50 (UO-31 renal): 1360 nM
TGI (UO-31 renal): 2660 nM
GI50 (XF 498 CNS): 1250 nM
TGI (XF 498 CNS): 2500 nM
